According to US10392630B2, “Plants having increased tolerance to herbicides” (BASF AGRO B.V., priority 2013, dated 2019):
Substitutions are numbered along the chain they refer to.

Columns and labels:
Assay in all cases: biochemical
[1] = molecular target: T1, Amaranthus mutant PPO (AMARE) (Amaranthus tuberculatus, UniProt Q0NZW9, F420M/R128L)
T1 sequence (Q0NZW9 1-534 R128L/F420M): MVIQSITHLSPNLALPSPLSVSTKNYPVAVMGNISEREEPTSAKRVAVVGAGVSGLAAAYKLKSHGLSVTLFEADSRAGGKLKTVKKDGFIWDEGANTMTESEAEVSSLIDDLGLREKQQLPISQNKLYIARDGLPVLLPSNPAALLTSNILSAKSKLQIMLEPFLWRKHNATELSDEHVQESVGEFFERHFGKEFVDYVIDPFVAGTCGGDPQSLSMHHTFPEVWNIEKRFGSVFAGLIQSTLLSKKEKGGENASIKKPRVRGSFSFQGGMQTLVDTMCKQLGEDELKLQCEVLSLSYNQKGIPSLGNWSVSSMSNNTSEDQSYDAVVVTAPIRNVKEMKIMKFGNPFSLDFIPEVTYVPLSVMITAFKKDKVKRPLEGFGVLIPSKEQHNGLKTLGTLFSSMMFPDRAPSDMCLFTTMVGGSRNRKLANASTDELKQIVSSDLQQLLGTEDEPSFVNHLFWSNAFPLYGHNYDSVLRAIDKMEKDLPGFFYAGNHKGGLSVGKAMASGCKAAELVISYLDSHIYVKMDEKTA

[2] = molecular target: T2, Amaranthus mutant PPO (AMARE) (Amaranthus tuberculatus, UniProt Q0NZW7)
T2 sequence (Q0NZW7 1-533): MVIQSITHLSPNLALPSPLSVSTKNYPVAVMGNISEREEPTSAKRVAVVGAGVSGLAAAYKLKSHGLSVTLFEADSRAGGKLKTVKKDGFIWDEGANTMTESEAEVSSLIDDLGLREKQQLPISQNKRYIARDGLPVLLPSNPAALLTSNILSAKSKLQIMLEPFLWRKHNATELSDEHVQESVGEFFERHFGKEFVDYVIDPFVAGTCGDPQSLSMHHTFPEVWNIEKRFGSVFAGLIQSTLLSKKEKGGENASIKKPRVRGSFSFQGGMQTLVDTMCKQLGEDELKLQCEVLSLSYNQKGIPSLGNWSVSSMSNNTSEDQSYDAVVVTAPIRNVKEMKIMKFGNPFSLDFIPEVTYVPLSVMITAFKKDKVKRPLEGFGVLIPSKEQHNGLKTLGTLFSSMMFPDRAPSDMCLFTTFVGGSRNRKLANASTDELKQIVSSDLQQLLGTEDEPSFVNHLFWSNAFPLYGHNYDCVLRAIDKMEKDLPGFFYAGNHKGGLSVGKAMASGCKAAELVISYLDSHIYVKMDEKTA

[3] = molecular target: T3, Amaranthus mutant PPO (AMARE) (Amaranthus tuberculatus, UniProt Q0NZW9, F420L/R128I)
T3 sequence (Q0NZW9 1-534 R128I/F420L): T1 sequence (Q0NZW9 1-534 R128L/F420M) with L128I, M420L

[4] = molecular target: T4, Amaranthus mutant PPO (AMARE) (Amaranthus tuberculatus, UniProt Q0NZW9, F420V/R128I)
T4 sequence (Q0NZW9 1-534 R128I/F420V): T1 sequence (Q0NZW9 1-534 R128L/F420M) with L128I, M420V

[5] = molecular target: T5, Amaranthus mutant PPO (AMARE) (Amaranthus tuberculatus, UniProt Q0NZW9, F420I/R128A)
T5 sequence (Q0NZW9 1-534 R128A/F420I): T1 sequence (Q0NZW9 1-534 R128L/F420M) with L128A, M420I

Row | Structure (SMILES) | IC50 [1] | IC50 [2] | IC50 [3] | IC50 [4] | IC50 [5]
1 | C#CCN1C(=O)C(F)(F)Oc2cc(F)c(-n3c(=O)n(C)c(=S)n(C)c3=O)cc21 [BAS 850H] | 246 nM | 2.12 nM | 466 nM | 424 nM | 24.6 nM
2 | CC(C)N(C)S(=O)(=O)NC(=O)c1cc(-n2c(=O)cc(C(F)(F)F)n(C)c2=O)c(F)cc1Cl [saflufenacil] | > 10000 nM | 1600 nM | > 10000 nM | > 10000 nM | > 10000 nM
